Assay results as given in PMC5728534 (PLoS ONE, 2017).
Changes are numbered by the printed parent chain. Read-outs that look alike come from different tables or passages of the source.

Tests used:
OCT1*1B = biological target: T1, OCT1*1B (Homo sapiens, UniProt O15245, L160F); test: in vitro; settings: HEK293 cells overexpressing OCT1*1B, pH 7.4, Km (± SEM), OCT1*1B reference allele, 10-600 μM ranitidine, control-cell uptake subtracted
T1 sequence (O15245 1-554 L160F): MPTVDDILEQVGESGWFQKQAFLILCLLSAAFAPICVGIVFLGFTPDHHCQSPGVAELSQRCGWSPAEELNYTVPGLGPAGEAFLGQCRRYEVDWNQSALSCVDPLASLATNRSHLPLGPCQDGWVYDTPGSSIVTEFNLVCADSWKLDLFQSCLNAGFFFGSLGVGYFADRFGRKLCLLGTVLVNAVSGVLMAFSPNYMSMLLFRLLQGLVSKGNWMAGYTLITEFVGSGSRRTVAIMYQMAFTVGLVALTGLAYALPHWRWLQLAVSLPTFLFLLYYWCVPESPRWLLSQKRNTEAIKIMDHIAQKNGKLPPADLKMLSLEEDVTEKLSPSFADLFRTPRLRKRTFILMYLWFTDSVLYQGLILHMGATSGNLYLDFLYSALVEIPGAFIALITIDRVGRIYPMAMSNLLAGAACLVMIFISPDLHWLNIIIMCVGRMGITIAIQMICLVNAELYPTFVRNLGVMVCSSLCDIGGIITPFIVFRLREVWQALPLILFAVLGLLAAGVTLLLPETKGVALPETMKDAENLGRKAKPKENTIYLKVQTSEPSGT
From the text: (§1) HEK293 or CHO cells overexpressing the human OCT1 alleles *1A (characterized by the amino acid substitution Met408Val), *1B, *1C (Phe160Leu), *1D (Pro341Leu/Met408Val), *2 (Met420del), *3 (Arg61Cys), *4 (Gly401Ser), *5 (Gly465Arg/Met420del), *6 (Cys88Arg/Met420del), *7 (Ser14Phe), *8A (Arg488Met), *8B (Arg488Met/Met408Val), *9 (Pro117Leu), *10 (Ser189Leu), *11 (Ile449Thr), *12 (Ser29Leu), or *13 (Thr245Met), the human OCT2 reference and variant alleles (Ala270Ser), human OCT3, and the control cells (transfected with the empty pcDNA5 vector) were generated by targeted chromosomal integration using the Flp-In™ System (Life Technologies, Darmstadt, Germany).
Six hundred thousand HEK293 or CHO cells were plated per well in 12-well plates (pre-coated with poly-D-lysine) and were grown for 48 hours to reach confluence. Cells were kept at 37°C and 5% CO2 in DMEM (HEK293) or RPMI (CHO), supplemented with 10% FCS, 100 U/ml penicillin, and 100 μg/ml streptomycin. Uptake experiments were performed at pH 7.4 using HBSS supplemented with 10 mM HEPES buffer (herein referred to as HBSS+). Cells were washed once with 1 ml pre-warmed HBSS+ buffer (37°C). […] Cells were washed twice with 2 ml ice-cold HBSS+ and lysed in 500 μl lysis buffer.
(§2) For all transport measurements, the intracellular amount of substrate was normalized to the total amount of protein of the sample as measured using the bicinchoninic acid assay [49].
(§3) For quantification of intracellular substrates, the cell debris were removed by centrifugation at 17,000 x g for 10 min. Four-hundred μl of the supernatant was evaporated to dryness under nitrogen flow at 40°C. The residue was reconstituted in 200 μl 0.1% formic acid and 10 μl were injected into the LC-MS/MS. For the LC-MS/MS analysis an API 4000™ system tandem mass spectrometer (AB SCIEX, Darmstadt, Germany) was used. Samples were separated using a Brownlee SPP RP-Amide Column (4.6x100 mm, 2.7 μm; PerkinElmer), with a SecurityGuard C18, 4x2 mm pre-column (Phenomenex, Aschaffenburg, Germany).
(§4) Nonlinear regression to the Michaelis-Menten equation was performed to determine Km and vmax using GraphPad Prism version 6 (GraphPad Software Inc., La Jolla, CA, USA). Nonlinear regression to the Hill equation v = vmin+(vmax-vmin)/1+([I]/IC50)^-Hillslope was performed to determine IC50 using SigmaPlot version 12.0 (Systat Software, San Jose, California, USA).

OCT3 = biological target: T2, OCT3 (Homo sapiens, UniProt O75751); test: Ranitidine uptake in HEK293 cells overexpressing OCT3; format: in vitro ADME
T2 construct: expressed in transfected cells; host or cells: HEK293 (Flp-In)
T2 sequence (O75751 1-556): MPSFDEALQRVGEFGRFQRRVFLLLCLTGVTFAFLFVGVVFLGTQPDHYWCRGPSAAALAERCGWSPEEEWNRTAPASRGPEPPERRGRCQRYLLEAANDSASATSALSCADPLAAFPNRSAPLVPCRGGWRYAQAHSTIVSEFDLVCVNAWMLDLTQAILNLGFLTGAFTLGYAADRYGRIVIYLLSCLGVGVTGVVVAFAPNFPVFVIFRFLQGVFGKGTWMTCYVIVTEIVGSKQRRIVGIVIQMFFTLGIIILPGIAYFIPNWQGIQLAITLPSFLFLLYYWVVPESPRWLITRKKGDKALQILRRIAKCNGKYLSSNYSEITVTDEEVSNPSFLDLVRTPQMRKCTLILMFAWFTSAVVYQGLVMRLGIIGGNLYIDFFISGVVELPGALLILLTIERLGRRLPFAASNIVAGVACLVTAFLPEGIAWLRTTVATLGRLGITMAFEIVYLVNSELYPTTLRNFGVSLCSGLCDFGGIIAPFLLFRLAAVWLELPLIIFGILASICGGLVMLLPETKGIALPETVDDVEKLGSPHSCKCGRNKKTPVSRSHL
From the text: as §1
(§5) Six hundred thousand HEK293 or CHO cells were plated per well in 12-well plates (pre-coated with poly-D-lysine) and were grown for 48 hours to reach confluence. Cells were kept at 37°C and 5% CO2 in DMEM (HEK293) or RPMI (CHO), supplemented with 10% FCS, 100 U/ml penicillin, and 100 μg/ml streptomycin. Uptake experiments were performed at pH 7.4 using HBSS supplemented with 10 mM HEPES buffer (herein referred to as HBSS+). […]
as §2
(§6) For quantification of intracellular substrates, the cell debris were removed by centrifugation at 17,000 x g for 10 min. […]

OCT1*1 = biological target: T3, OCT1*1 (Homo sapiens, UniProt O15245, L160F); test: Inhibition by ranitidine of OCT1-mediated substrate uptake, reference allele, HEK293 cells; format: cell-based; settings: for inhibition at 2 min: human, HEK293 cells overexpressing OCT1*1 (reference allele); for IC50: OCT1*1, 2 min, HEK293
T3 construct: expressed in transfected cells; host or cells: HEK293 T-REx (Flp-In)
T3 sequence (O15245 1-554 L160F): T1 sequence (O15245 1-554 L160F)
From the text: as §1
(§7) Cells were kept at 37°C and 5% CO2 in DMEM (HEK293) or RPMI (CHO), supplemented with 10% FCS, 100 U/ml penicillin, and 100 μg/ml streptomycin. Uptake experiments were performed at pH 7.4 using HBSS supplemented with 10 mM HEPES buffer (herein referred to as HBSS+). Cells were washed once with 1 ml pre-warmed HBSS+ buffer (37°C). […] Cells were washed twice with 2 ml ice-cold HBSS+ and lysed in 500 μl lysis buffer.
(§8) The intracellular concentration of MPP^+ was determined using liquid scintillation counting of radioactively labeled substrate. To this end, 400 μl cell lysate was measured with 9 ml Aquasafe Plus liquid scintillator using the Scintillation Counter LS6500 (Beckman Coulter, Krefeld, Germany). Intracellular ASP^+ concentrations were determined using fluorescence spectroscopy.
as §2, §3, §4

OCT1*2 (Met420del) = biological target: T4, OCT1*2 (Met420del) (Homo sapiens, UniProt O15245, DEL420-420/L160F); test: Inhibition by ranitidine of OCT1-mediated substrate uptake, OCT1*2 allele, HEK293 cells; format: cell-based; design: expressed in transfected cells; host or cells: HEK293 T-REx (Flp-In)
T4 sequence (O15245 with tags, fused parts or gaps L160F/DEL420-420): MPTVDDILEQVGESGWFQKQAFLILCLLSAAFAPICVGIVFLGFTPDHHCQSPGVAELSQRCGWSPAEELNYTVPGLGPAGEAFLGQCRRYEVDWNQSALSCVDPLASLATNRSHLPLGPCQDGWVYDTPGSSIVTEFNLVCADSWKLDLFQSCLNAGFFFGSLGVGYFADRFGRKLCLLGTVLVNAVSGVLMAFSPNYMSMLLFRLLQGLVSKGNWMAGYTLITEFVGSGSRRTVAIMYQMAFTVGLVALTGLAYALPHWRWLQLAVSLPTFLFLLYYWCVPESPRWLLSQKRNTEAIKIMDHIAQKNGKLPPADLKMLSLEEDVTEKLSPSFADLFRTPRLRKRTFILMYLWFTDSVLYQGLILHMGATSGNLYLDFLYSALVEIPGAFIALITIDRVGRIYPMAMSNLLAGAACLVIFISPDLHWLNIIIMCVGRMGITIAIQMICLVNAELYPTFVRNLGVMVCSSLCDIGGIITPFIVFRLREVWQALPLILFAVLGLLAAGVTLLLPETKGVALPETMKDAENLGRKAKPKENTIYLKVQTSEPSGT
From the text: as §1, §7, §8, §2, §3, §4

[1] = biological target: T5, OCT1*1D (Pro341Leu/Met408Val) (Homo sapiens, UniProt O15245, L160F/M408V/P341L); settings: 1 and 10 μM ranitidine, 2 min
T5 sequence (O15245 1-554 L160F/P341L/M408V): T1 sequence (O15245 1-554 L160F) with P341L, M408V
From the text: as §1, §5, §2, §6

CNC(=C[N+](=O)[O-])NCCSCc1ccc(CN(C)C)o1 [ranitidine, Ranitidine]
Km at 2 min (OCT1*1B): 62.9 µM | increase in ranitidine uptake, OCT3-overexpressing cells compared to the controls (OCT3; HEK293, 10-600 μM ranitidine, 2 min): up to 2 fold | OCT3-mediated uptake lower than the OCT1-mediated uptake of ranitidine (OCT3; at clinically relevant concentrations): more than 14 fold | induction of morphine uptake (OCT1*1; at Cmax of ranitidine, reference allele only, not in OCT1*2): 41% | inhibition at 2 min (OCT1*1; pH 7.4, probe metformin (100 μM), read-out: inhibition of metformin uptake): 50% | inhibition at 2 min (OCT1*1; pH 7.4, high concentrations expected in the gastrointestinal tract, all substrates tested, reference allele, read-out: inhibition of substrate uptake): > 70% | IC50 (OCT1*1; substrate 0.1 μM MPP+): 81.9 µM | IC50 (OCT1*1; substrate 0.1 μM morphine): 45.5 ± 5.49 µM | IC50 (OCT1*1; substrate 1 μM ASP+): 337 µM | IC50 (OCT1*1; substrate 100 μM metformin): 20.9 µM | IC50 at 2 min (OCT1*2 (Met420del); human, HEK293 cells overexpressing OCT1*2 (Met420del), pH 7.4, probe metformin (100 μM), substrate 100 μM metformin, OCT1*2, 2 min, HEK293): 14.8 µM | inhibition at 2 min (OCT1*2 (Met420del); human, HEK293 cells overexpressing OCT1*2 (Met420del), pH 7.4, probe metformin (100 μM), read-out: inhibition of metformin uptake): 50% | inhibition at 2 min (OCT1*2 (Met420del); human, HEK293 cells overexpressing OCT1*2 (Met420del), pH 7.4, probe morphine (0.1 μM), read-out: inhibition of morphine uptake): ≤ 30% | inhibition at 2 min (OCT1*2 (Met420del); human, HEK293 cells overexpressing OCT1*2 (Met420del), pH 7.4, high concentrations expected in the gastrointestinal tract, all substrates tested, OCT1*2, read-out: inhibition of substrate uptake): > 70% | IC50 (OCT1*2 (Met420del); substrate 0.1 μM MPP+, OCT1*2, 2 min, HEK293): 34.4 µM | IC50 (OCT1*2 (Met420del); substrate 0.1 μM morphine, OCT1*2, 2 min, HEK293): 19.5 µM | IC50 (OCT1*2 (Met420del); substrate 1 μM ASP+, OCT1*2, 2 min, HEK293): 155 µM | uptake of ranitidine compared to the reference allele [1]: no significant difference
